Results taken from patent US8536227B2, “Modulators of protein kinase signaling” (Novotyr Therapeutics Ltd., priority 2008, dated 2013).

Key:
[1] = tested on: Human ovary cancer A2780 cells xenografts; assay: Inhibition of ovarian A2780 tumor growth in vivo (xenograft); set-up: species or system Nude:Hsd mice; settings: A2780 xenograft in nude mice
Description: Groups were composed of 7-8 mice per group.
The procedure was followed for the A2780 ovary cancer cell in-vivo study with the following modifications:
The Veh group received PBS. The CDDP group received 8 mg/kg CDDP (Cisplatin) twice a week.

[2] = tested on: IGF1R related cell signaling in human breast cancer MCF7 cells; settings: FIG. 15; for IGF1-induced tyrosine phosphorylation of IRS1: 50 ng/ml IGF-1 stimulation
Description: (§2) Tyrosine autophosphorylation of the β-subunit of IGF1R as well as downstream signaling induced by IGF1R were assayed in human breast cancer MCF7 cells and in melanoma A375 cells. Cells were seeded in 6-well plates (250,000 cells/well) and 24 hours later medium was replaced by serum-free medium (RPMI supplemented with 100 units/ml penicillin and 100 μg/ml streptomycin). Following 20 hours of serum-starvation, medium was replaced with serum-free medium containing various concentrations of the inhibitors in 0.1% DMSO for an additional 4-5 hours. […] Equal amounts of protein per lane were separated by 8% SDS-PAGE and transferred to a nitrocellulose membrane (Sartorius AG). […] Detection was performed with horseradish peroxidase-conjugated secondary antibody using the ECL system. Blots were then stripped of antibodies, blocked with TBST with 5% low fat milk and re-probed with antibodies detecting both the phosphorylated and the non-phosphorylated corresponding proteins e.g. IGF1Rβ, IRS1, PKB, and ERK. Anti-actin antibodies served as control.
(§3) In addition, lysates were prepared from cells exposed to inhibitors at various concentrations for 24 hours in the presence or the absence of FCS without stimulation. Lysate preparation and western blot were performed as described above.

A375 cells = assay: cells; settings: Homo sapiens, A-375, 168 h, read-out: CF (colony formation in soft agar) IC50
Description: (§1) Suspensions of separated A375 and U138MG cells were plated in 50 μl growth medium containing 0.3% agar on top of a 100 μl layer of growth medium containing 1% agar in 96-well plates. Growth medium (50 μl) supplemented with inhibitors at various concentrations was added on top. Six to seven days after plating, colonies were stained with 0.5% MTT for 4 hours, and dye was then extracted by the addition of 100 μl dissolving buffer, containing 5 gr sodium dodecyl sulfate, 8.75 ml DDW, 12.5 ml dimethyl formamide, 0.5 ml acetic acid and 0.07 ml HCl. Following incubation overnight at 37° C., optical density values were read at 570 nm in ELISA plate reader. The data was analyzed in Microsoft Excel, using the vehicle control as 100% proliferation. The assays were performed in triplicates. The values of IC50 were derived from the dose-dependent growth curves obtained.

U138MG cells = assay: cells; settings: Homo sapiens, U138-MG, 168 h, read-out: CF (colony formation in soft agar) IC50
Description: as §1

[3] = tested on: IGF1R related cell signaling in human melanoma A375 cells; settings: FIGS. 14 and 16; for IGF1-induced tyrosine phosphorylation of IRS1: 50 ng/ml IGF-1 stimulation
Description: as §2, §3

[4] = tested on: Human melanoma A375 cells xenografts; settings: A375 xenograft in nude mice, IP 50 mg/kg daily or 100 mg/kg every other day
Description: Human melanoma A375 cells (ATCC, 2×10^6 cells per mouse) were injected subcutaneously into the flank of Nude:Hsd mice. Eight days later, when tumors were formed, mice were divided into 3 groups with similar average tumor size of 120 mm^3. […] The Veh group received daily 2% EtOH, 6% Tween-80 in DDW at volume of 10 ml/kg. Groups were composed of 7-8 mice per group. The length (l) and the width (w) of the tumors were measured twice a week, as well as the mouse body weight. The volumes of the tumors were calculated as follows: v=lw^2/2. Graphs present average volumes of the tumors versus days following treatment initiation.
The mice were treated with daily or alternate day IP injections, at the specified doses.

SMILES | inhibition of ovarian tumor growth ([1]; 8 mg/kg twice a week) [%] | IGF1-induced tyrosine phosphorylation of IRS1 [2] | serine phosphorylation of IRS1 (pS636/639-IRS1) and IRS1 level [2] | inhibition of ovarian tumor growth ([1]; IP daily 25 mg/kg in PBS) [%] | IC50 (A375 cells) [nM] | IC50 (U138MG cells) [nM] | IGF1-induced tyrosine phosphorylation of IRS1 [3] | serine phosphorylation of IRS1 (pS636/639-IRS1) and IRS1 level [3] | inhibition of melanoma tumor growth [4] [%]
[NH2][Pt]([NH2])([Cl])[Cl] [CDDP, Cisplatin, reference compound] | 14 |  |  |  |  |  |  |  | 
Oc1cc(/C=C/C(=S)NCc2cc(O)c(O)c(O)c2Br)cc(Br)c1O [Compound 4] |  | inhibited | induce serine phosphorylation of IRS1, followed by its degradation |  |  |  |  |  | 
Oc1cc(CNC(=S)/C=C/c2ccc(O)c(O)c2Br)cc(O)c1O [Compound 5] |  | inhibited | induce serine phosphorylation of IRS1, followed by its degradation | 45 | 400 | 2600 | inhibited | induce serine phosphorylation of IRS1, followed by its degradation | 70
Oc1cc(Br)c(/C=C/C(=S)NCc2cc(O)c(O)c(O)c2)cc1O [Compound 6] |  |  |  |  |  |  | inhibited | induce serine phosphorylation of IRS1, followed by its degradation | 
